Consider 18 molecules from PMC9516332 (Frontiers in Oncology, 2022).

Like-named read-outs stand apart in the source and are kept apart here.

Test [1] has as its target panel of 255 wild-type kinases (Homo sapiens, UniProt P48729). The note with it: cited from earlier work.
The target in test [2] is panel of 255 wild-type kinases (Homo sapiens, UniProt Q9NQU5). Nature of the test: Kinase panel profiling at 1 µmol/L (MSA or IMAP), percentage inhibition. The note with it: PAK6; 1 µmol/L single concentration; read-out: %-inhibition, PAK6. It is filed as biochemical.
The target in test [3] is T1, panel of 255 wild-type kinases (Homo sapiens, UniProt Q12851).
T1 sequence (Q12851 1-820): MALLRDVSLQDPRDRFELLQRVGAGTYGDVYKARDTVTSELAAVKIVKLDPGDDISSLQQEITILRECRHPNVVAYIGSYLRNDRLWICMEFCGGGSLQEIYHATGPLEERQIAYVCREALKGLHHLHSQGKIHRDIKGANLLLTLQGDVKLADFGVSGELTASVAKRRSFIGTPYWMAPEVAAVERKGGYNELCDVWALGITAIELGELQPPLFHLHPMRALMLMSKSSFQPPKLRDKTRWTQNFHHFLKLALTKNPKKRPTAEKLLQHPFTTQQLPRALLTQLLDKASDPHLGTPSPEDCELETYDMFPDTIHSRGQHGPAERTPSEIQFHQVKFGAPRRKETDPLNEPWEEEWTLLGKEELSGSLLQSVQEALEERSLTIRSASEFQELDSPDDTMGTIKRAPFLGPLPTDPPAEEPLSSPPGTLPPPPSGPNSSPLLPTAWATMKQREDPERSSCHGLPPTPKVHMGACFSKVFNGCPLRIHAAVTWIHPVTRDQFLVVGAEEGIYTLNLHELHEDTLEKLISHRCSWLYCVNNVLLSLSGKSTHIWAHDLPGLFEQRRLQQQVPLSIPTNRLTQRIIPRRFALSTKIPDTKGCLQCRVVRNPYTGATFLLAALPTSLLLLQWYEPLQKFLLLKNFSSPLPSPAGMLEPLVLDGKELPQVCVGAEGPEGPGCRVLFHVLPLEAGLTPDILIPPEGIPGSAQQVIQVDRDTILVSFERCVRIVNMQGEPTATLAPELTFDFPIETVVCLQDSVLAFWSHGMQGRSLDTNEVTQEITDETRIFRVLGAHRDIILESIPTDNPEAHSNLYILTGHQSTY
Described as above. It is filed as biochemical. The note with it: kinase MAP4K2; 1 µmol/L single concentration; read-out: %-inhibition at 1 µmol/L, MAP4K2.

Test [4] deals with panel of 255 wild-type kinases (Homo sapiens, UniProt Q9BYP7). Described as above. The class given is biochemical. The note with it: kinase WNK3; 1 µmol/L single concentration; read-out: %-inhibition at 1 µmol/L, WNK3.
For test [5], the target named is panel of 255 wild-type kinases (Homo sapiens, UniProt P08069). The description is as above. It is filed as biochemical. To be noted: kinase IGF1R; 1 µmol/L single concentration; read-out: %-inhibition at 1 µmol/L, IGF1R.
The target of test [6] is T2, panel of 255 wild-type kinases (Homo sapiens, UniProt O14757).
T2 sequence (O14757 1-476): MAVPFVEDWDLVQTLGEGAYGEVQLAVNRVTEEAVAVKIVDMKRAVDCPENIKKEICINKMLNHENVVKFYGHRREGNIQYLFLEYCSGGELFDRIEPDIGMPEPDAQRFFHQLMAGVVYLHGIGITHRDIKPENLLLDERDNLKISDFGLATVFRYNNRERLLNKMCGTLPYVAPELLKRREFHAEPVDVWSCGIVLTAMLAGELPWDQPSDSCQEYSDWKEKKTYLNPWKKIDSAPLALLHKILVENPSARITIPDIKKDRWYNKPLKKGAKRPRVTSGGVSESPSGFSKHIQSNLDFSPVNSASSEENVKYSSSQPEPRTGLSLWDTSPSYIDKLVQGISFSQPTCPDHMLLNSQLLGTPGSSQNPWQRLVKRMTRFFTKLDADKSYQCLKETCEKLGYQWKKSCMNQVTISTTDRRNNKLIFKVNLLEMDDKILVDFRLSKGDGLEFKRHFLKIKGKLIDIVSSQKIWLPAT
The description is as above. The class given is biochemical. The note with it: CHK1 kinase assay; 1 µmol/L single concentration; read-out: %-inhibition CHK1.

Test [7] addresses panel of 255 wild-type kinases (Homo sapiens, UniProt Q16620). Described as above. The class given is biochemical. The note with it: kinase TRKB; 1 µmol/L single concentration; read-out: %-inhibition at 1 µmol/L, TRKB.
Test [8] deals with T3, panel of 255 wild-type kinases (Homo sapiens, UniProt Q8NE63).
T3 sequence (Q8NE63 1-616): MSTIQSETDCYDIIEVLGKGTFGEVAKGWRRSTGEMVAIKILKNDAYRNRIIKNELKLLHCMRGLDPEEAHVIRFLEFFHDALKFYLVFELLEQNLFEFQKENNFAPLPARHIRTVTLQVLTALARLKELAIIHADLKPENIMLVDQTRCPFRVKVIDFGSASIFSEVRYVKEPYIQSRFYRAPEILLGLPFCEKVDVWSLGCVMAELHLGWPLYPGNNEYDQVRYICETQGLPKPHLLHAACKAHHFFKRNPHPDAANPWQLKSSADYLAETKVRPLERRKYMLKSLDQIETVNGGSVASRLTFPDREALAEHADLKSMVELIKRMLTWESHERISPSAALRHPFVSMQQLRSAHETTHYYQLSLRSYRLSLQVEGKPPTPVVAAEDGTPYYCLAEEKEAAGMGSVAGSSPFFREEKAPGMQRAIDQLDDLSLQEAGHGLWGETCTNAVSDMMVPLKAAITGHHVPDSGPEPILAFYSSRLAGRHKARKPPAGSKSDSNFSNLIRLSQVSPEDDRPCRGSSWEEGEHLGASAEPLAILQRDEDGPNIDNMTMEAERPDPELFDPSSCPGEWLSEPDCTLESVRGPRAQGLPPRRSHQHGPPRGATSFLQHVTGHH
The test is described as above. To be noted: kinase HIPK4; 1 µmol/L single concentration; read-out: %-inhibition at 1 µmol/L, HIPK4. It is filed as biochemical.

Setting [9] is: kinase CK1α, 1 µmol/L single concentration, ref DOI: 10.1158/1535-7163.MCT-18-0877.
Where [10] appears, read: kinase CK1α, 1 µmol/L single concentration, ref DOI: 10.1371/journal.pone.0092146.

Consider `CC#CC(=O)N1CCC[C@H]1c1nc(-c2ccc(C(=O)Nc3ccccn3)cc2)c2c(N)nccn12` [acalabrutinib], for which, in test [1] (setting [9]), the “%-inhibition at 1 µmol/L, CK1α” value is on record as 10%.

For `CCc1cc2c(cc1N1CCC(N3CCOCC3)CC1)C(C)(C)c1[nH]c3cc(C#N)ccc3c1C2=O` [alectinib], the “%-inhibition at 1 µmol/L, CK1α” value in test [1] (setting [9]) is reported as 22%.

With `COc1cc(N2CCC(N3CCN(C)CC3)CC2)ccc1Nc1ncc(Cl)c(Nc2ccccc2P(C)(C)=O)n1` [brigatinib], in test [1], the “%-inhibition at 1 µmol/L, CK1α” value is reported as 11%.

For the molecule `Cc1cc(Nc2ncc(Cl)c(Nc3ccccc3S(=O)(=O)C(C)C)n2)c(OC(C)C)cc1C1CCNCC1` [ceritinib], the “%-inhibition at 1 µmol/L, CK1α” value in test [1] (setting [9]) is 7%.

On to `O=C(c1ccc(F)c(F)c1Nc1ccc(I)cc1F)N1CC(O)([C@@H]2CCCCN2)C1` [cobimetinib], for which the “%-inhibition at 1 µmol/L, CK1α” value in test [1] (setting [9]) is listed as 2%.

With `C[C@@H](Oc1cc(-c2cnn(C3CCNCC3)c2)cnc1N)c1c(Cl)ccc(F)c1Cl` [crizotinib], the “%-inhibition at 1 µmol/L, CK1α” value in test [1] (setting [10]) is listed as -1.36%.

Take `CC(C)(C)c1nc(-c2cccc(NS(=O)(=O)c3c(F)cccc3F)c2F)c(-c2ccnc(N)n2)s1` [dabrafenib]: the “%-inhibition at 1 µmol/L, CK1α” value in test [1] (setting [10]) is reported as 13%.

On to `C=CC(=O)N1CCC[C@@H](n2nc(-c3ccc(Oc4ccccc4)cc3)c3c(N)ncnc32)C1` [ibrutinib], for which, in test [1] (setting [9]), the “%-inhibition at 1 µmol/L, CK1α” value is on record as -2%.

For `CO[C@@H]1[C@H](N(C)C(=O)c2ccccc2)C[C@H]2O[C@]1(C)n1c3ccccc3c3c4c(c5c6ccccc6n2c5c31)C(=O)NC4` [midostaurin], the “%-inhibition at 1 µmol/L, CK1α” value in test [1] (setting [9]) is 3.51%.

As for `C=CC(=O)Nc1cc(Nc2nccc(-c3cn(C)c4ccccc34)n2)c(OC)cc1N(C)CCN(C)C` [osimertinib], in test [1] (setting [9]), the “%-inhibition at 1 µmol/L, CK1α” value is 4.46%.

For `CO[C@]1(C(=O)N[C@@H](C)c2ccc(-n3cc(F)cn3)nc2)CC[C@H](c2nc(C)cc(Nc3cc(C)[nH]n3)n2)CC1` [pralsetinib], the inhibition at 1 µM in test [2] amounted to 42%; in test [3], 3.5%; in test [4], 0.505%; in test [5], 10%; in test [6], 11%; in test [7] it was 94%. Also, the inhibition at 1 µM in test [8] was 44%.

In the case of `CCn1c(=O)c(-c2cc(NC(=O)Nc3ccccc3)c(F)cc2Br)cc2cnc(NC)cc21` [ripretinib], the inhibition at 1 µM is 1.15% in test [2]; 44% in test [3]; -1.09% in test [4]; 3.34% in test [5]; 3.57% in test [6]; 64% in test [7]. The inhibition at 1 µM in test [8] is 98%.

In the case of `COc1ccc(CN2C3CC2CN(c2ccc(-c4cc(OCC(C)(C)O)cn5ncc(C#N)c45)cn2)C3)cn1` [selpercatinib], the inhibition at 1 µM in test [2] is 14%; in test [3], 4.23%; in test [4], -1.49%; in test [5], 3%; in test [6], 29%; in test [7], 16%. In addition, in test [8], the inhibition at 1 µM came to 21%.

As for `Cn1cnc2c(F)c(Nc3ccc(Br)cc3Cl)c(C(=O)NOCCO)cc21` [selumetinib], the inhibition at 1 µM was 12% in test [2]; 2.67% in test [3]; -1.43% in test [4]; 5.57% in test [5]; 2.73% in test [6]; 4% in test [7]. Also, the inhibition at 1 µM in test [8] stood at 10%.

Take `CC(=O)Nc1cccc(-n2c(=O)n(C3CC3)c(=O)c3c(Nc4ccc(I)cc4F)n(C)c(=O)c(C)c32)c1` [trametinib]: the “%-inhibition at 1 µmol/L, CK1α” value in test [1] (setting [10]) was 3%.

`Cc1cc(Nc2ncnc3ccc(NC4=NC(C)(C)CO4)cc23)ccc1Oc1ccn2ncnc2c1` [tucatinib]: the inhibition at 1 µM in test [2] was determined as 6.34%; in test [3], 6%; in test [4], 3%; in test [5], 2.31%; in test [6], 5.71%; in test [7], 6%. Besides, in test [8], the inhibition at 1 µM is 21%.

For `CCCS(=O)(=O)Nc1ccc(F)c(C(=O)c2c[nH]c3ncc(-c4ccc(Cl)cc4)cc23)c1F` [vemurafenib], in test [1] (setting [10]), the “%-inhibition at 1 µmol/L, CK1α” value is reported as -4.34%.

In the case of `C=CC(=O)N1CCC([C@@H]2CCNc3c(C(N)=O)c(-c4ccc(Oc5ccccc5)cc4)nn32)CC1` [zanubrutinib], the inhibition at 1 µM is 11% in test [2]; -2.68% in test [3]; 5.7% in test [4]; 3% in test [5]; 16% in test [6]; 6.58% in test [7]. The inhibition at 1 µM in test [8] was determined as 7%.
